Data as given in article PMC6375636, “Monotherapy with a low-dose lipopeptide HIV fusion inhibitor maintains long-term viral suppression in rhesus macaques” (PLoS Pathogens, 2019).
Peptide text beside a SMILES is read from it. * marks the point of attachment. Stearoyl = CCCCCCCCCCCCCCCCCC(=O)*

Key:
in vivo [1] = conditions: rhesus monkey, sc, 3 mg/kg
Method: (§1) A single-cycle infection assay was performed to determine the inhibitory activity of the monkey sera on HIV-1NL4-3 pseudovirus. The 50% effective concentration was defined as the fold serum dilution that inhibited 50% of virus infection.

HIV-1NL4-3 pseudovirus = test: Ex vivo inhibitory activity of sera from monkeys administrated LP-80 (single-cycle infection assay); format: in vivo, Chinese rhesus macaques; conditions: monkey sera after SC 3 mg/kg
Method: as §1

[2] = Rat IV, 6 mg/kg, n = 6; serum, LC-MS/MS, non-compartmental
in vivo [3] = conditions: Sprague-Dawley, rat, 6 mg/kg

Compound: CCCCCCCCCCCCCCCCCC(=O)NCCCC[C@H](NC(=O)[C@H](CCC(=O)O)NC(=O)[C@H](CC(C)C)NC(=O)[C@H](CCCCN)NC(=O)[C@H](CCCCN)NC(=O)[C@H](CC(C)C)NC(=O)[C@H](CCC(=O)O)NC(=O)[C@H](CCC(=O)O)NC(=O)[C@H](CCC(=O)O)NC(=O)[C@H](CC(N)=O)NC(=O)[C@H](CCCCN)NC(=O)[C@H](CCCCN)NC(=O)[C@H](CCC(N)=O)NC(=O)[C@H](CCC(N)=O)NC(=O)[C@H](CCC(=O)O)NC(=O)[C@H](CCC(=O)O)NC(=O)[C@H](C)NC(=O)[C@H](CCCCN)NC(=O)[C@H](CCCCN)NC(=O)[C@H](CC(C)C)NC(=O)[C@H](CC(C)C)NC(=O)[C@H](CCC(=O)O)NC(=O)[C@H](CCC(=O)O)NC(=O)[C@@H](NC(=O)[C@H](CCCCN)NC(=O)[C@H](CCC(N)=O)NC(=O)[C@H](CCC(=O)O)NC(=O)[C@H](Cc1c[nH]c2ccccc12)NC(C)=O)[C@@H](C)CC)C(N)=O [LP-80] (Ac-WEQKIEELLKKAEEQQKKNEEELKKLEK(Stearoyl)-NH2)
- AUC(0-inf) (in vivo [1]): 601 ± 29.3 µg·h/mL
- AUC(0-t) (in vivo [1]): 601 ± 29.3 µg·h/mL
- CL/F (in vivo [1]): 0.0833 mL/min/kg
- Cmax (in vivo [1]): 24800 ± 10800 ng/mL
- MRT (in vivo [1]): 23.7 ± 2.26 h
- Tmax (in vivo [1]): 5.83 ± 3.82 h
- Vd/F (in vivo [1]): 0.0989 ± 0.0034 L/kg
- half-life (in vivo [1]): 13.7 ± 0.86 h
- Time of peak serum inhibitory activity after injection (HIV-1NL4-3 pseudovirus): 6 to 8 h
- Cl_F_obs/Cl_obs [2]: 0.3552 ± 0.0563 mL/min/kg
- level at 72 h (in vivo [3]): ~7 ng/mL
- AUC(0-inf) (in vivo [3]; iv): 288 ± 49.4 µg·h/mL
- AUC(0-t) (in vivo [3]; iv): 288 ± 49.4 µg·h/mL
- Cmax (in vivo [3]; iv): 53300 ± 10600 ng/mL
- MRT (in vivo [3]; iv): 7.53 ± 0.85 h
- Tmax (in vivo [3]; iv): 0.08 h
- Vd (in vivo [3]; iv): 0.183 ± 0.0216 L/kg
- AUC(0-inf) (in vivo [3]; sc): 114 ± 33.6 µg·h/mL
- AUC(0-t) (in vivo [3]; sc): 114 ± 33.6 µg·h/mL
- CL/F (in vivo [3]; sc): 0.958 mL/min/kg
- Cmax (in vivo [3]; sc): 7650 ± 1580 ng/mL
- MRT (in vivo [3]; sc): 9.73 ± 1.11 h
- Tmax (in vivo [3]; sc): 4 ± 2.19 h
